Tests used:
CEM cells = assay: Inhibition of CEM cell growth; type: cell-based, human; details: for IC50: Homo sapiens, CCRF-CEM, 72 h, read-out: approximate IC50 for CEM cell growth
From the text: (§1) FIG. 5A is a graph showing inhibition by AZT of retroviral propagation and of cell growth in cultured human lymphoblasts infected with simian immuno-deficiency virus;
(§2) FIG. 5B is a graph showing the results of using one embodiment of the invention in the same test as that of FIG. 5A.
(§3) For biological testing, a stock solution of the free acid of Example 1 was made up in DMSO and dispensed into RPMI 1640 cell growth medium to give the desired range of concentrations. The final DMSO concentration in the medium was <0.1%. These solutions in cell growth medium were used in all of the biological tests described below.
(§4) The activities of AZT and of the compound of Example 1 against simian immunodeficiency virus (SIV) in cultured human lymphoblasts (CEM cells) were assayed; the results are shown in FIGS. 5A and 5B, respectively. The drugs were added to the culture 4 hours before the virus and inhibition was measured at 3 days.

HIV-1 RT = biological target: T1, HIV-1 RT (Human immunodeficiency virus type 1 group M subtype B, UniProt P04585); assay: Cell-free assay with purified HIV-1 RT; type: biochemical
T1 construct: purified HIV-1 RT
From the text: as §3
To examine the question whether RT inhibition by the compound of Example 1 could by itself account for the antiretroviral effect in intact cells, the effect of the compound on RT activity was examined in a cell-free assay with purified HIV-1 RT. An IC50 value (ca. 50 μM) well in excess of the concentration needed to block viral replication was obtained. Therefore, it appears that metabolism is required in the action of the compound of Example 1 or that the compound has one or more targets other than RT in the cell.

[1] = Cytotoxicity in non-infected Jurkat cells, 4 days exposure; type: cell-based; details: human, up to 10^-4 M, read-out: decrease in cell viability
Method: as §3
(§5) The compound of Example 1 was tested initially for its ability to inhibit HIV-1 replication in Jurkat cells, a CD4+ human T-lymphocyte line commonly used for this purpose. Reverse transcriptase (RT) activity in the supernatant from the infected cells was used as a measure of viral replication, and the compound was added to the cultures at time zero or 4 h post-infection. Parallel cytotoxicity assays were performed in non-infected Jurkat cells to assess therapeutic selectivity.

[2] = tested on: simian immunodeficiency virus (SIV); assay: Inhibition of SIV replication in monkey peripheral blood leukocytes (RT activity); type: cell-based
From the text: (§6) FIG. 6A is a graph showing results of a test similar to that of FIG. 5A except that monkey peripheral blood leukocytes were used; and
(§7) FIG. 6B is a graph showing inhibition by one embodiment of the invention under the same conditions as in FIG. 5B.
as §3, §4

Jurkat cells = assay: Inhibition of Jurkat cell growth; type: cell-based, human; details: Homo sapiens, Jurkat, read-out: IC50 for cell growth inhibition
From the text: (§8) FIG. 2B is a graph showing inhibition of Jurkat cell growth under the same conditions as in FIG. 2A;
as §3
(§9) In a second evaluation, the compound salt of Example 1, AZT, and PFA were compared as inhibitors of HIV-1 replication in Jurkat cells when added to the cultures 4 h before the virus (i.e., in a prophylaxis model). The drugs were present through the length of the experiment (4 days). […] Thus, while there was an approximately four-log TI for AZT in this experiment, the TI for the compound of Example 1 could not actually be estimated because the IC50 for cell growth inhibition, extrapolated from the dose-response curve, was >10^-3 M.

[3] = Inhibition of Jurkat cell growth; type: cell-based, human; details: human; at 10^-5 M; Jurkat cells; read-out: growth inhibition of host cells
From the text: as §8, §3, §9

[4] = Inhibition of growth of human peripheral blood leukocytes; type: cell-based; details: at 10^-4 M, H-PBLs, read-out: inhibition of PBL growth
From the text: FIG. 3B is a graph showing inhibition of growth of human peripheral blood leukocytes;
as §3
(§10) The activities of the compound of Example 1, AZT, and PFA were also examined in cultured human peripheral blood leukocytes (H-PBLs) infected with HIV-1. […] In both PBLs and Jurkat cells, therefore, the antiviral potency of the compound of Example 1 resembled that of AZT, while its low cytotoxicity was more reminiscent of that of PFA.

HIV-1 [5] = assay: Inhibition of HIV-1 replication in Jurkat cells (RT activity), drugs added 4 h before virus (prophylaxis model); type: cell-based; details: for IC50: read-out: 50% inhibitory concentration (IC50), RT activity in culture supernatants; for IC95: 96 h, read-out: concentration needed to achieve the same degree of inhibition (>95% inhibition of RT activity)
Method: The final DMSO concentration in the medium was <0.1%. These solutions in cell growth medium were used in all of the biological tests described below.
In a second evaluation, the compound salt of Example 1, AZT, and PFA were compared as inhibitors of HIV-1 replication in Jurkat cells when added to the cultures 4 h before the virus (i.e., in a prophylaxis model). The drugs were present through the length of the experiment (4 days).

HIV-1 [6] = assay: Inhibition of HIV-1 replication in cultured human peripheral blood leukocytes; type: cell-based; details: Human immunodeficiency virus 1, Leukocyte; H-PBLs; added 4 hours before virus, measured at 4 days; read-out: 50% inhibition of viral replication
From the text: FIG. 3A is a graph showing inhibition of HIV-1 replication in human peripheral blood leukocytes;
as §3, §10

[7] = tested on: Rauscher murine leukemia virus (RLV); assay: Plaque assay: inhibition of plaque formation by Rauscher murine leukemia virus in mouse fibroblast cultures; type: cell-based; details: for inhibition of plaque formation: added 4 hours before virus, 4 days
From the text: FIG. 4A is a graph showing inhibition of plaque formation by a different retrovirus (a murine leukemia virus) in mouse fibroblast cultures;
as §3
The compound of Example 1 as well as AZT and PFA were also tested in a plaque assay for the ability to inhibit plaque formation in mouse fibroblast cultures by Rauscher murine leukemia virus (RLV), a type C retrovirus; the results are shown in FIG. 4A. Drugs were added to the cultures 4 hours before the virus, and inhibition was measured at 4 days. The cytotoxicity of all the agents to non-infected fibroblasts was also determined and found to be <50% at concentrations of up to 10^-5 M as shown in FIG. 4B. […] When AZT alone was used at a concentration of only 10^-9 M there was no effect, but when AZT and PFA were combined, each at concentrations of 10^-9 M, there was almost 50% inhibition of plaque formation even though the PFA was not used in excess.

HIV-1 [8] = assay: Inhibition of HIV-1 replication in Jurkat cells (RT activity in supernatant), compound added at time zero or 4 h post-infection; type: cell-based; details: Human immunodeficiency virus 1, compound added at time zero or 4 h post-infection, read-out: 50% inhibition of RT activity relative to non-treated HIV-infected cells
Method: as §3, §5

[9] = tested on: simian immunodeficiency virus (SIV); assay: Inhibition of SIV in cultured human lymphoblasts (CEM cells), RT activity; type: cell-based; details: CCRF-CEM, added 4 hours before virus, measured at 3 days, read-out: approximate IC50 for inhibition of RT activity in SIV-infected CEM cells
From the text: as §1, §2, §3, §4

[10] = tested on: monkey peripheral blood leukocytes (M-PBLs); assay: Growth inhibition / toxicity to monkey peripheral blood leukocytes; type: cell-based; details: in words
From the text: as §6, §7, §3, §4

[11] = Human immunodeficiency virus 1, Jurkat

SMILES	IC50 (CEM cells)	inhibition at 96 h, 10 µM [3]	inhibition at 100 µM [4]	IC50 (HIV-1 [5]; [11])	IC50 (HIV-1 [6])	inhibition of plaque formation ([7]; at 10^-7 M)	IC50 [9]	IC95 (HIV-1 [5]; [11])	other results
CCOC(=O)P(=O)(O)OC[C@H]1O[C@@H](n2cc(C)c(=O)[nH]c2=O)C[C@@H]1N=[N+]=[N-] [Example 1, 3'-Azido-3'-deoxy-5'-[P-(ethoxycarbonyl)-P-Hydroxyphosphinyl]thymidine]	> 100 µM	20%	20%	~0.002 µM	~0.01 µM	inactive	~0.01 µM	–	times less toxic to the host cells than AZT (CEM cells; CEM cells, relative to AZT): at least 200 times; IC50 (HIV-1 RT): ~50 µM; cytotoxicity at 96 h, 100 µM [1]: < 10%; IC50 ([2]; Simian immunodeficiency virus, Leukocyte, in Primates, M-PBLs, added 4 hours before virus, read-out: 50% inhibition of RT activity (SIV replication)): 0.1 µM; IC50 (Jurkat cells): > 1000 µM; inhibition at 0.005 µM (HIV-1 [5]; Human immunodeficiency virus 1, Jurkat, read-out: inhibition of RT activity): > 95%; increase in potency relative to AZT (HIV-1 [5]; Jurkat cells, HIV-1, IC50 comparison with AZT): roughly fivefold; inhibition of plaque formation ([7]; at 10^-5 M): almost complete inhibition; effectiveness in the RLV system relative to AZT or a 1:1 combination of AZT and PFA ([7]; comparison in words): less effective than AZT or a 1:1 combination of AZT and PFA; IC50 (HIV-1 [8]): ~0.5 µM; toxicity to the host cell relative to AZT [10]: considerably lower than with AZT
O=C(O)P(=O)(O)O [PFA, phosphonoformic acid]	–	30%	–	10 µM	–	–	–	1000 µM	inhibition of plaque formation ([7]; until the concentration reached 10^-4 M): no appreciable effect
Cc1cn([C@H]2C[C@H](N=[N+]=[N-])[C@@H](CO)O2)c(=O)[nH]c1=O [AZT, 3'-azidothymidine, reference compound]	~2 µM	50 to 60%	80%	0.01 µM	~0.01 µM	Complete inhibition	~0.005 µM	100 µM	concentrations required for inhibition of SIV replication in M-PBLs (versus CEM cells) ([2]; in words): required higher AZT concentrations; inhibition of plaque formation ([7]; at 10^-9 M): no effect; concentrations required for inhibition of cell growth in M-PBLs (versus CEM cells) [10]: required higher AZT concentrations

— patent US5132414A, “Dideoxynucleoside-5'-phosphonoformic acid compounds” (Dana-Farber Cancer Institute, Inc., priority 1990, dated 1992)
